Experiments:
[1] = test system: PSMA-expressing LNCaP cells; test: Cellular uptake and internalization in LNCaP cells, blocking with 2-PMPA; type: cell-based; details: 2-PMPA 100 µM
Description: Cellular uptake experiments were performed according to a previous report with slight modifications. LNCaP cells expressing PSMA were cultured in RPMI 1640 medium containing 10% fetal bovine serum (FBS) and 1% penicillin–streptomycin on 6-well culture plates (containing 5 × 10^5 cells/well) for 24 h in a humidified atmosphere (5% CO2) incubator at 37 °C. After removing the medium and washing with phosphate-buffered saline (PBS) (−) once, a mixed solution of [^125I]5 and [^211At]6, [^125I]5 and [^67Ga]Ga-PSMA-617, and [^125I]5 and [^67Ga]5 in 1.0 mL of medium without FBS was added (3.7 kBq/each tracer/well). The final concentrations of the radioligands for [^125I]5, [^211At]6, and [^67Ga]5 were 45.5 pM, 0.2 pM, and 2.5 pM, respectively. These solutions containing radioligands were diluted in saline containing 0.05% (w/v) bovine serum albumin (BSA) to prevent adsorption to tubes or plates and further diluted with medium to 0.00125% as the final BSA concentration. After incubation for 10, 60, and 120 min, the medium from each well was removed, and the cells were washed twice with ice-cold PBS (−); the surface of the cells was washed twice with ice-cold 0.2 M glycine buffer (pH 3.0). The cells were lysed using a 1 M NaOH aqueous solution. The radioactivity of ^67Ga,^125I and ^211At in the 1 M NaOH aqueous solution was determined and defined as the internalized radioligand fraction using an auto well gamma counter (ARC-8001, Hitachi, Ltd., Tokyo, Japan) according to a previous paper. The radioactivity was determined with an auto well gamma counter and corrected for background radiation and physical decay during counting. A window from 16 to 69 keV was used for counting ^125I, and a window from 70 to 120 keV was used for counting ^211At. Correlation factors to eliminate any crossover of ^125I activity in the ^211At counts were determined by measuring the ^125I standard in each window. More than one week after the experiments, the radioactivity counts of ^125I were measured after the decay of ^211At. The protein amount in cells was quantified using a BCA Protein Assay Kit (Nacalai Tesque, Kyoto, Japan) according to the manufacturer’s protocol. All data were expressed as percent dose per milligram protein (%dose/mg protein). In blocking experiments, a selective inhibitor of the PSMA, (2S)-2-(phosphonomethyl)pentanedioic acid (2-PMPA) (final concentration 100 µM), was added to each well with tracers. After incubation for 10, 60, and 120 min, radioactivity and protein concentration were determined in the same manner as the experiment without the blocking agent.

[2] = In vitro stability test in 0.1 M phosphate buffer; type: physicochemical; details: 0.1 M PB solution containing 10% ethanol, 37 °C, 24 h, mean ± SD for three samples
Description: samples were analyzed by RP-HPLC using a Cosmosil 5C18-AR-II (4.6 × 150 mm) at a flow rate of 1 mL/min with a gradient mobile phase of 60% methanol in water with 0.1% trifluoroacetic acid (TFA) to 80% methanol in water with 0.1% TFA for 20 min.
In vitro stability test in 0.1 M PB solution containing 10% ethanol was performed. The […]
and 97.1 ± 0.9% (mean ± SD for three samples) after incubating at 37 °C for 24 h, […]

[3] = Biodistribution with post-administration of albumin-binding competitor IPBA; type: in vivo, normal mice (ddY); details: normal mice, IPBA at 1 h postinjection, 10 molar equivalent of blood albumin; except in the kidney
Description: To evaluate the effects of an albumin-binding competitor (sodium salt of IPBA) in normal mice, [^125I]5 and [^211At]6 were intravenously co-administered. At 1 h postinjection of the radiolabeled compounds, IPBA (3.4 mg, 11 µmol) dissolved in saline at a 10 molar equivalent of blood albumin was administered. Mice were sacrificed at 65 min, 70 min, 2 h, 4 h, 12 h, and 24 h postinjection of [^125I]5 and [^211At]6. Tissues of interest were treated, and the radioactivity was measured in the same manner as above. Data are also shown as %ID/g or %ID.

[4] = Biodistribution after intravenous co-injection of [125I]5 and [211At]6 (Table S2); type: in vivo, normal mice (ddY); details: normal mice
Description: [^67Ga]Ga-PSMA-617 (37 kBq) and [^125I]5 (37 kBq) or [^125I]5 (37 kBq) and [^211At]6 (37 kBq) were intravenously co-administered into three or four normal mice at each timepoint (6 weeks male ddY mice, 28–30 g, Japan SLC, Inc., Hamamatsu, Japan). Mice were sacrificed at 10 min, 1 h, 4 h, and 24 h ([^67Ga]Ga-PSMA-617 and [^125I]5) or at 10 min, 1 h, 4 h, 12 h, and 24 h ([^125I]5 and [^211At]6) postinjection of the radiolabeled compounds. Tissues of interest were removed and weighed, and the radioactivity of ^67Ga and ^125I and ^125I and ^211At were determined with an auto well gamma counter (ARC-8001) and corrected for background radiation as described in the Cellular Uptake Experiments Section. To determine the amount and routes of the radioactivity excreted from the body for 24 h after the injection of radiolabeled compounds, mice were housed in metabolic cages (METABOLICA, SUGIYAMA-GEN Co., Ltd., Tokyo, Japan). Data are shown as the percentage of injected dose per gram of tissues (%ID/g) or %ID.

O=C([O-])CN1CCN(CC(=O)[O-])CCN(CC(=O)NC(CCCCNC(=O)CCCc2ccc([211At])cc2)C(=O)NCC2CCC(C(=O)NC(Cc3ccc4ccccc4c3)C(=O)NCCCCC(NC(=O)NC(CCC(=O)O)C(=O)O)C(=O)O)CC2)CCN(CC(=O)[O-])CC1.[Ga+3] (stereo not shown) [[^211At]6]
Effect of excess 2-PMPA on cellular uptake [1]: significantly reduced | Radiochemical purity after incubation (in vitro stability) [2]: 97.1 ± 0.9% | Effect of IPBA administration on radioactivity levels in tissues [3]: significantly decreased | In vivo dehalogenation (radioactivity in stomach and neck) [4]: minimal deiodination or deastatination | Biodistribution of radioactivity: Blood ([4]; i.v., 10 min after injection): 26.93 (0.47) % injected dose per gram | Biodistribution of radioactivity: Bone ([4]; i.v., 10 min after injection): 2.74 (0.53) % injected dose per gram | Biodistribution of radioactivity: Brain ([4]; i.v., 10 min after injection): 0.53 (0.06) % injected dose per gram | Biodistribution of radioactivity: Heart ([4]; i.v., 10 min after injection): 4.66 (0.37) % injected dose per gram | Biodistribution of radioactivity: Kidney ([4]; i.v., 10 min after injection): 5.19 (0.64) % injected dose per gram | Biodistribution of radioactivity: L. Intestine ([4]; i.v., 10 min after injection): 0.78 (0.05) % injected dose per gram | Biodistribution of radioactivity: Liver ([4]; i.v., 10 min after injection): 3.61 (0.05) % injected dose per gram | Biodistribution of radioactivity: Lung ([4]; i.v., 10 min after injection): 15.25 (2.29) % injected dose per gram | Biodistribution of radioactivity: Muscle ([4]; i.v., 10 min after injection): 0.99 (0.14) % injected dose per gram | Biodistribution of radioactivity: Neck ([4]; i.v., 10 min after injection): 0.04 (0.01) % injected dose | Biodistribution of radioactivity: Pancreas ([4]; i.v., 10 min after injection): 2.59 (0.24) % injected dose per gram | Biodistribution of radioactivity: S. Intestine ([4]; i.v., 10 min after injection): 1.42 (0.15) % injected dose per gram | Biodistribution of radioactivity: Spleen ([4]; i.v., 10 min after injection): 2.56 (0.44) % injected dose per gram | Biodistribution of radioactivity: Stomach ([4]; i.v., 10 min after injection): 0.85 (0.07) % injected dose | Biodistribution of radioactivity: Blood ([4]; i.v., 1 h after injection): 17.94 (1.58) % injected dose per gram | Biodistribution of radioactivity: Bone ([4]; i.v., 1 h after injection): 1.92 (0.21) % injected dose per gram | Biodistribution of radioactivity: Brain ([4]; i.v., 1 h after injection): 0.38 (0.12) % injected dose per gram | Biodistribution of radioactivity: Heart ([4]; i.v., 1 h after injection): 4.88 (0.26) % injected dose per gram | Biodistribution of radioactivity: Kidney ([4]; i.v., 1 h after injection): 4.36 (0.53) % injected dose per gram | Biodistribution of radioactivity: L. Intestine ([4]; i.v., 1 h after injection): 0.93 (0.15) % injected dose per gram | Biodistribution of radioactivity: Liver ([4]; i.v., 1 h after injection): 2.54 (0.38) % injected dose per gram | Biodistribution of radioactivity: Lung ([4]; i.v., 1 h after injection): 10.21 (2.55) % injected dose per gram | Biodistribution of radioactivity: Muscle ([4]; i.v., 1 h after injection): 1.25 (0.10) % injected dose per gram | Biodistribution of radioactivity: Neck ([4]; i.v., 1 h after injection): 0.04 (0.01) % injected dose | Biodistribution of radioactivity: Pancreas ([4]; i.v., 1 h after injection): 2.07 (0.45) % injected dose per gram | Biodistribution of radioactivity: S. Intestine ([4]; i.v., 1 h after injection): 1.59 (0.31) % injected dose per gram | Biodistribution of radioactivity: Spleen ([4]; i.v., 1 h after injection): 1.77 (0.11) % injected dose per gram | Biodistribution of radioactivity: Stomach ([4]; i.v., 1 h after injection): 0.84 (0.27) % injected dose | Biodistribution of radioactivity: Blood ([4]; i.v., 4 h after injection): 13.40 (1.08) % injected dose per gram | Biodistribution of radioactivity: Bone ([4]; i.v., 4 h after injection): 1.59 (0.09) % injected dose per gram | Biodistribution of radioactivity: Brain ([4]; i.v., 4 h after injection): 0.32 (0.06) % injected dose per gram | Biodistribution of radioactivity: Heart ([4]; i.v., 4 h after injection): 4.31 (0.39) % injected dose per gram | Biodistribution of radioactivity: Kidney ([4]; i.v., 4 h after injection): 4.44 (0.25) % injected dose per gram | Biodistribution of radioactivity: L. Intestine ([4]; i.v., 4 h after injection): 1.15 (0.35) % injected dose per gram | Biodistribution of radioactivity: Liver ([4]; i.v., 4 h after injection): 1.55 (0.24) % injected dose per gram | Biodistribution of radioactivity: Lung ([4]; i.v., 4 h after injection): 7.81 (1.92) % injected dose per gram | Biodistribution of radioactivity: Muscle ([4]; i.v., 4 h after injection): 1.27 (0.08) % injected dose per gram | Biodistribution of radioactivity: Neck ([4]; i.v., 4 h after injection): 0.04 (0.01) % injected dose | Biodistribution of radioactivity: Pancreas ([4]; i.v., 4 h after injection): 1.76 (0.35) % injected dose per gram | Biodistribution of radioactivity: S. Intestine ([4]; i.v., 4 h after injection): 1.30 (0.19) % injected dose per gram | Biodistribution of radioactivity: Spleen ([4]; i.v., 4 h after injection): 1.60 (0.25) % injected dose per gram | Biodistribution of radioactivity: Stomach ([4]; i.v., 4 h after injection): 0.83 (0.18) % injected dose | Biodistribution of radioactivity: Blood ([4]; i.v., 12 h after injection): 12.23 (1.51) % injected dose per gram | Biodistribution of radioactivity: Bone ([4]; i.v., 12 h after injection): 1.91 (0.32) % injected dose per gram | Biodistribution of radioactivity: Brain ([4]; i.v., 12 h after injection): 0.42 (0.07) % injected dose per gram | Biodistribution of radioactivity: Heart ([4]; i.v., 12 h after injection): 3.83 (0.57) % injected dose per gram | Biodistribution of radioactivity: Kidney ([4]; i.v., 12 h after injection): 5.31 (0.31) % injected dose per gram | Biodistribution of radioactivity: L. Intestine ([4]; i.v., 12 h after injection): 0.79 (0.16) % injected dose per gram | Biodistribution of radioactivity: Liver ([4]; i.v., 12 h after injection): 1.58 (0.12) % injected dose per gram | Biodistribution of radioactivity: Lung ([4]; i.v., 12 h after injection): 7.79 (0.46) % injected dose per gram | Biodistribution of radioactivity: Muscle ([4]; i.v., 12 h after injection): 1.37 (0.10) % injected dose per gram | Biodistribution of radioactivity: Neck ([4]; i.v., 12 h after injection): 0.18 (0.06) % injected dose | Biodistribution of radioactivity: Pancreas ([4]; i.v., 12 h after injection): 1.44 (0.82) % injected dose per gram | Biodistribution of radioactivity: S. Intestine ([4]; i.v., 12 h after injection): 1.06 (0.11) % injected dose per gram | Biodistribution of radioactivity: Spleen ([4]; i.v., 12 h after injection): 1.71 (0.33) % injected dose per gram | Biodistribution of radioactivity: Stomach ([4]; i.v., 12 h after injection): 1.04 (0.11) % injected dose | Biodistribution of radioactivity: Blood ([4]; i.v., 24 h after injection): 10.45 (0.19) % injected dose per gram | Biodistribution of radioactivity: Bone ([4]; i.v., 24 h after injection): 1.56 (0.33) % injected dose per gram | Biodistribution of radioactivity: Brain ([4]; i.v., 24 h after injection): 0.43 (0.14) % injected dose per gram | Biodistribution of radioactivity: Heart ([4]; i.v., 24 h after injection): 4.06 (1.41) % injected dose per gram | Biodistribution of radioactivity: Kidney ([4]; i.v., 24 h after injection): 3.50 (0.24) % injected dose per gram | Biodistribution of radioactivity: L. Intestine ([4]; i.v., 24 h after injection): 0.62 (0.15) % injected dose per gram | Biodistribution of radioactivity: Liver ([4]; i.v., 24 h after injection): 1.43 (0.07) % injected dose per gram | Biodistribution of radioactivity: Lung ([4]; i.v., 24 h after injection): 5.77 (0.84) % injected dose per gram | Biodistribution of radioactivity: Muscle ([4]; i.v., 24 h after injection): 1.28 (0.09) % injected dose per gram | Biodistribution of radioactivity: Neck ([4]; i.v., 24 h after injection): 0.14 (0.06) % injected dose | Biodistribution of radioactivity: Pancreas ([4]; i.v., 24 h after injection): 1.61 (0.22) % injected dose per gram | Biodistribution of radioactivity: S. Intestine ([4]; i.v., 24 h after injection): 0.81 (0.05) % injected dose per gram | Biodistribution of radioactivity: Spleen ([4]; i.v., 24 h after injection): 1.33 (0.43) % injected dose per gram | Biodistribution of radioactivity: Stomach ([4]; i.v., 24 h after injection): 1.31 (0.10) % injected dose | Biodistribution of radioactivity: Feces ([4]; i.v., excreted for 24 h after injection (column not printed safely), Table S2): 2.00 (0.33) % injected dose | Blood retention ([4]; profile resembled that of [125I]5): prolonged blood retention

Reference: PMC12251549, “Engineering a Radiohybrid PSMA Ligand with an Albumin-Binding Moiety and Pharmacokinetic Modulation via an Albumin-Binding Competitor for Radiotheranostics” (Molecules, 2025)
